PubChem BioAssay AID602287 (National Center for Advancing Translational Sciences (NCATS), 2012)
In brackets after ≈: the same amount, converted by molar mass. Inconclusive results are not listed.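 The calls were made as follows: active = compounds dissolving in phosphate buffer above 20 µM; inconclusive = solubility from 10 to 20 µM; inactive = solubility below 10 µM.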

Test system: PBS pH 7.4 solubility, LC-UV/MS, 1 h shake
Assay: qHTS Assay for Agonists of the Relaxin Receptor RXFP1: PBS Solubility
Conditions: active compounds read high
Excerpt: The relaxin hormone is involved in the variety of biological functions in normal tissues and diseases. The role of relaxin is well-established in female reproduction and parturition, mammary gland and endometrial development, maintenance of myometrial quiescence during pregnancy. Relaxin signaling through its G protein-coupled receptor (GPCR) RXFP1 results in ECM remodeling through regulation of collagen deposition, cell invasiveness, proliferation and overall tissue homeostasis. […] Recombinant human relaxin (rhRlx) is currently being tested in clinical trials as a protective agent in congestive heart failure, in treating severe preeclampsia, and as an anti-fibrotic agent in systemic sclerosis. The probe and analogs were tested to assess their PBS solubility in this assay. NIH Chemical Genomics Center [NCGC] NIH Molecular Libraries Probe Production Centers Network [MLPCN] MLPCN Grant: R03 MH085705 Assay Submitter (PI): Alexander Agoulnik
1. 8ul of reference and test compound stock solution were added to 392ul 100mM phosphate buffer (pH 7.4) 2. Sample tubes were shaken for 1 hr (1000 rpm) at room temperature 3. Samples were centrifuged (10 min at 12000 rpm) to precipitate un-dissolved particles 4. Supernatants were transferred to new tubes 5. Concentration of the supernatant was determined by LC-UV or LC-MS/MS

solubility, inactive:
CCOc1ccccc1C(=O)Nc1ccccc1C(=O)Nc1cccc(S(=O)(=O)C(F)(F)F)c1 1.1 µM (≈ 0.542 µg/mL)
CC(C)Oc1ccccc1C(=O)Nc1ccccc1C(=O)Nc1cccc(S(=O)(=O)C(F)(F)F)c1 7 µM (≈ 3.55 µg/mL)
CCOc1ccccc1C(=O)Nc1ccccc1C(=O)Nc1cccc(C(F)(F)F)c1 1.7 µM (≈ 0.728 µg/mL)
COc1ccccc1C(=O)Nc1ccccc1C(=O)Nc1cccc(SC(F)(F)F)c1 2.9 µM (≈ 1.29 µg/mL)
CCCCOc1ccccc1C(=O)Nc1ccccc1C(=O)Nc1cccc(S(=O)(=O)C(F)(F)F)c1 5.3 µM (≈ 2.76 µg/mL)
